This passage reports Activity and Km results from ChEMBL document CHEMBL2074097, “Urate transport via human PAH transporter hOAT1 and its gene structure” (Kidney Int, 2003).

Data set [1] concerns the target T1, Solute carrier family 22 member 6 (Homo sapiens, UniProt Q4U2R8).
T1 sequence (Q4U2R8 whole entry): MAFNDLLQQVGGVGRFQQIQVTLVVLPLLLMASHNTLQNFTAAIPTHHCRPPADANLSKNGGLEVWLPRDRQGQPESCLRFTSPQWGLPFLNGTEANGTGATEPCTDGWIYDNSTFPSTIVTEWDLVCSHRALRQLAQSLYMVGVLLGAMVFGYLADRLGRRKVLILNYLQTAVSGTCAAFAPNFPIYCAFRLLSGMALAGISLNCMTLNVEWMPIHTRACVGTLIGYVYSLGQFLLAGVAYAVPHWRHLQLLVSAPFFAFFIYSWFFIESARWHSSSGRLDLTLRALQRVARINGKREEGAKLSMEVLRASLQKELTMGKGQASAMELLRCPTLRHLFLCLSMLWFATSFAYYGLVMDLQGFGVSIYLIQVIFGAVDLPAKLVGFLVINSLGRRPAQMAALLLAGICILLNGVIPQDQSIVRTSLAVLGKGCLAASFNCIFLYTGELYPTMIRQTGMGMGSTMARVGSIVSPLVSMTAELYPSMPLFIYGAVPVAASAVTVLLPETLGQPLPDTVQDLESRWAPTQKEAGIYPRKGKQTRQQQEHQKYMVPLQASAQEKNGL
Kind of data set: TP_TRANSPORTER: inhibition of Urate uptake (Urate: 300 uM, alpha-KG: 2000 uM) in OAT1-expressing S2 cells. Type of data set: functional, cell-based. Also noted: scale not given: the % may be the effect or the level left. As to conditions: s2, 2000 µM.

Substrate in data set [2]: O=c1[nH]c(=O)c2[nH]c(=O)[nH]c2[nH]1
The data set is described as follows: TP_TRANSPORTER: uptake in OAT1-expressing S2 cells. Type of data set: functional, cell-based.

In turn, `O=C(O)CCC(=O)C(=O)O` [ALPHA-KETOGLUTARIC ACID] registered an Activity in data set [1] of 12.4%.

B1: Solute carrier family 22 member 6 (Homo sapiens) (protein)
chain: T1 sequence (Q4U2R8 whole entry)
In general, Km refers to the substrate concentration at which the rate is half of its maximum. With B1, the Km in data set [2] turned out to be 947 µM.
